Usually IC50 stands for the midpoint of a concentration-inhibition curve.

For assay [1], the system named is TLR2 induced IL-6 in peripheral blood mononuclear cells (PBMCs). In words: PBMC TLR2 Induced IL-6 Assay. The format is cell-based, human. The following applies: human PBMCs, 10 μg/ml lipoteichoic acid for 5 hours, IL-6 by ELISA, value without asterisk, read-out: Cell IC50. An outline of the steps:
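Human PBMCs (250000 cells/well) in RPMI with 10% heat-inactivated FCS pre-treated with compound for 30 min at 37° C, then stimulated 5 h with 10 μg/ml lipoteichoic acid. Supernatant IL-6 measured by ELISA and reported as IC50 or EC50.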

The target of another assay is IRAK4 (Homo sapiens (Human), UniProt Q9NWZ3). The assay can be described thus: IRAK4 Inhibition Assay. The format is biochemical. The conditions noted are these: ATP 500 μM; IRAK4 0.6 nM; 60 min at room temperature. As for the experimental part:
The assays were performed in U-bottom 384-well plates. […] The reaction was initiated by the combination of IRAK4 with substrates and test compounds. The reaction was incubated at room temperature for 60 min. and terminated by adding 45 μL of 35 mM EDTA to each sample. The reaction mixture was analyzed on the Caliper LABCHIP® 3000 (Caliper, Hopkinton, Mass.) by electrophoretic separation of the fluorescent substrate and phosphorylated product.

Molecules are shown by their SMILES. Like-named read-outs stand apart in the source and are kept apart here.

IRAK4, sequence (Q9NWZ3 whole entry, species assumed): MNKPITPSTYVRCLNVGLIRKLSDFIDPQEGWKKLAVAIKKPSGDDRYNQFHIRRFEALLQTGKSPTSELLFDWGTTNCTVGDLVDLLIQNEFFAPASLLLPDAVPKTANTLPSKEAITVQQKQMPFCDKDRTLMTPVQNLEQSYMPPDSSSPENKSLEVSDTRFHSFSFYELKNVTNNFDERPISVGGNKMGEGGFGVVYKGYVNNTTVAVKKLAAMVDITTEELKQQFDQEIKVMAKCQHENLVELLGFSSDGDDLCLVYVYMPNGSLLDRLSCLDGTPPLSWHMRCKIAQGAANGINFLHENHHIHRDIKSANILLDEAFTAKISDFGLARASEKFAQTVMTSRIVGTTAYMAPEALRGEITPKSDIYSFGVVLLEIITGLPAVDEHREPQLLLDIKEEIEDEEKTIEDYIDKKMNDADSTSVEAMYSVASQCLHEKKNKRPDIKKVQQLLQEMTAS

Turning to `CC(C)Nc1cc(Nc2ccc3ncsc3c2)ncc1C(=O)N[C@H]1CC[C@H](NC(=O)c2ccncc2)CC1` [Example 207], the IC50 was 158 nM in assay [1] (Homo sapiens, PBMC, 5 h) and 1.7 nM on IRAK4.

`CC(C)Nc1cc(Nc2ccc3ncsc3c2)ncc1C(=O)NCC[C@@H](C)NC(=O)N(C)c1ccccc1` [Example 208]: the concentration for half-maximal inhibition (IC50) in assay [1] (Homo sapiens, PBMC, 5 h) stood at 647 nM; on IRAK4, 3.7 nM.

Turning to `CC(=O)NCCCCNC(=O)c1cnc(Nc2ccc3ncsc3c2)cc1NC(C)C` [Example 209], the IC50 in assay [1] (Homo sapiens, PBMC, 5 h) was 875 nM; at IRAK4, 5.3 nM.

With `CC(C)Nc1cc(Nc2ccc3ncsc3c2)ncc1C(=O)NCC[C@@H](C)NC(=O)N1CCCC1` [Example 212], the IC50 in assay [1] (Homo sapiens, PBMC, 5 h) worked out at 712 nM; on IRAK4, 6.9 nM.

For the compound `CC(C)Nc1cc(Nc2ccc3ncsc3c2)ncc1C(=O)N[C@H]1CC[C@H](C(=O)NC2(C#N)CC2)CC1` [Example 213], the IC50 in assay [1] (Homo sapiens, PBMC, 5 h) was determined as 403 nM; on IRAK4, 3.1 nM.

For the compound `CC(C)Nc1cc(Nc2ccc3ncsc3c2)ncc1C(=O)N[C@H]1CC[C@H](C(=O)NC23CC4CC(CC(O)(C4)C2)C3)CC1` [Example 214], the concentration for half-maximal inhibition (IC50) in assay [1] (Homo sapiens, PBMC, 5 h) worked out at 371 nM; at IRAK4 it was 6.7 nM.

As to `CC(=O)N[C@H]1CC[C@@H](NC(=O)c2cnc(Nc3ccc4ncsc4c3)cc2NC(C)C)CC1` [Example 216], the IC50 worked out at 604 nM in assay [1] (Homo sapiens, PBMC, 5 h) and 3.5 nM on IRAK4.

Take `CC(C)Nc1cc(Nc2ccc3ncsc3c2)ncc1C(=O)NC1CCN(S(C)(=O)=O)CC1` [Example 217]: the IC50 turned out to be 560 nM in assay [1] (Homo sapiens, PBMC, 5 h) and 5 nM on IRAK4.

For `CC(C)Nc1cc(Nc2ccc3ncsc3c2)ncc1C(=O)NC1CCN(C(=O)N2CCOCC2)CC1` [Example 218], the IC50 in assay [1] (Homo sapiens, PBMC, 5 h) came to 471 nM; on IRAK4 it was 7 nM.

Take `CC(C)Nc1cc(Nc2ccc3ncsc3c2)ncc1C(=O)NC1CCN(C(=O)c2cccnc2)CC1` [Example 219]: the IC50 in assay [1] (Homo sapiens, PBMC, 5 h) worked out at 447 nM; on IRAK4, 4.8 nM.

In the case of `CC(C)Nc1cc(Nc2ccc3ncsc3c2)ncc1C(=O)N[C@H]1CC[C@H](C(=O)NC23CCC(O)(CC2)C3)CC1` [Example 220], the IC50 in assay [1] (Homo sapiens, PBMC, 5 h) is 328 nM; at IRAK4, 3.4 nM.

Take `CNC(=O)[C@H]1CC[C@H](NC(=O)c2cnc(Nc3ccc4ncsc4c3)cc2NC(C)C)C1` [Example 221]: the IC50 in assay [1] (Homo sapiens, PBMC, 5 h) was 462 nM; at IRAK4, 10.5 nM.

Turning to `CC(C)Nc1cc(Nc2ccc3ncsc3c2)ncc1C(=O)N[C@H]1CC[C@H](C(=O)NC2(C#N)CC2)C1` [Example 222], the IC50 in assay [1] (Homo sapiens, PBMC, 5 h) is 692 nM; on IRAK4 it was 9.9 nM.

Consider `CC(C)Nc1cc(Nc2ccc3ncsc3c2)ncc1C(=O)NC12CCC(N)(CC1)CC2` [Example 223], for which the IC50 in assay [1] (Homo sapiens, PBMC, 5 h) was 238 nM; at IRAK4, 4.2 nM.

As to `CC(C)Nc1cc(Nc2ccc3ncsc3c2)ncc1C(=O)NC12CCC(N)(CC1)C2` [Example 224], the half-maximal inhibitory concentration (IC50) in assay [1] (Homo sapiens, PBMC, 5 h) amounted to 280 nM; at IRAK4, 9.6 nM.

As for `CCNC(=O)[C@H]1CC[C@H](NC(=O)c2cnc(Nc3ccc4ncsc4c3)cc2NC(C)C)CC1` [Example 225], the IC50 in assay [1] (Homo sapiens, PBMC, 5 h) turned out to be 535 nM; on IRAK4 it was 3.3 nM.

`CC(C)Nc1cc(Nc2ccc3ncsc3c2)ncc1C(=O)NC12CCC(C(=O)NCC(C)(C)O)(CC1)CC2` [Example 226]: the IC50 in assay [1] (Homo sapiens, PBMC, 5 h) stood at 274 nM; on IRAK4 it was 3.4 nM.

Turning to `CC(C)Nc1cc(Nc2ccc3ncsc3c2)ncc1C(=O)N[C@H]1CC[C@H](C(=O)NC2CC2)CC1` [Example 227], the IC50 in assay [1] (Homo sapiens, PBMC, 5 h) was 138 nM; at IRAK4, 2.7 nM.

Consider `CC(C)Nc1cc(Nc2ccc3ncsc3c2)ncc1C(=O)N[C@H]1CC[C@H](C(N)=O)CC1` [Example 228], for which the IC50 in assay [1] (Homo sapiens, PBMC, 5 h) amounted to 392 nM; at IRAK4, 2.4 nM.

On to `CNC(=O)C12CCC(NC(=O)c3cnc(Nc4ccc5ncsc5c4)cc3NC(C)C)(CC1)CC2` [Example 229], for which the IC50 is 488 nM in assay [1] (Homo sapiens, PBMC, 5 h) and 3.4 nM on IRAK4.

With `CC(C)(O)[C@H](F)CNC(=O)c1cnc(Nc2ccc3ncsc3c2)cc1NC1CCOCC1F` (stereo partly drawn) [Example 230], the values for the IC50 (in assay [1]; at IRAK4) were 274 nM and 5.1 nM, respectively.

The values are drawn from patent publication US9546153B2, “Bicyclic heterocycle substituted pyridyl compounds useful as kinase modulators” (BRISTOL-MYERS SQUIBB COMPANY, priority 2012, dated 2017).
